Measurements: ChEMBL document CHEMBL1201862, “PubChem BioAssay data set” (2004)
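Growth conditions: 96-well plates. Treatment: test compound, 48 hours, 5 concentrations. Analysis: linear interpolation between bracketing concentrations; unreached endpoints set to highest concentration. At the GI50, growth is halved.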 The source made the active and inactive calls. No stated cut-off is given here; in the data, active = GI50 up to about 1.1 µM and inactive = higher.

What was measured:
Assay in all cases: NCI tumour cell line growth inhibition, 48 h
[1] = system: RXF 393
[2] = system: CCRF-CEM
[3] = system: Malme-3M
[4] = system: T47D
[5] = system: SK-MEL-28
[6] = system: SK-OV-3
[7] = system: PC-3
[8] = system: UACC-62
[9] = system: CAKI-1
[10] = system: TK-10
[11] = system: DU-145
[12] = system: COLO 205
[13] = system: SW-620
[14] = system: HOP-62
[15] = system: SF-295
[16] = system: HCT-15
[17] = system: RPMI-8226
[18] = system: SK-MEL-5
[19] = system: MDA-MB-231
[20] = system: MCF7
[21] = system: SNB-75
[22] = system: MDA-N
[23] = system: SR
[24] = system: IGROV-1
[25] = system: UACC-257
[26] = system: 786-0
[27] = system: A549
[28] = system: M14
[29] = system: HL-60
[30] = system: SN12C
[31] = system: HT-29
[32] = system: OVCAR-8
[33] = system: NCI-H23
[34] = system: KM12
[35] = system: EKVX
[36] = system: K562
[37] = system: MOLT-4
[38] = system: HCC 2998

## Cc1ccc(S(=O)(=O)OC2C(O)C(O)OC2C(c2cc(O)c3c(c2O)C(=O)c2ccccc2C3=O)c2cc(O)c3c(c2O)C(=O)c2ccccc2C3=O)cc1 (stereo not drawn)
[1]
  GI50: 5.36 µM (inactive)
[2]
  GI50: 3.89 µM (inactive)
[3]
  GI50: 1.28 µM (inactive)
[4]
  GI50: 5.07 µM (inactive)
[5]
  GI50: 7.26 µM (inactive)
[6]
  GI50: 6.25 µM (inactive)
[7]
  GI50: 2.9 µM (inactive)
[8]
  GI50: 4.38 µM (inactive)
[9]
  GI50: 2.74 µM (inactive)
[10]
  GI50: 8.71 µM (inactive)
[11]
  GI50: 5.58 µM (inactive)
[12]
  GI50: 2.2 µM (inactive)
[13]
  GI50: 4.65 µM (inactive)
[14]
  GI50: 4.11 µM (inactive)
[15]
  GI50: 3.76 µM (inactive)
[16]
  GI50: 3.4 µM
[17]
  GI50: 2.64 µM (inactive)
[18]
  GI50: 3.43 µM (inactive)
[19]
  GI50: 4.06 µM (inactive)
[20]
  GI50: 3.44 µM (inactive)
[21]
  GI50: 4.09 µM (inactive)
[22]
  GI50: 3.61 µM (inactive)
[23]
  GI50: 3.08 µM (inactive)
[24]
  GI50: 7.1 µM (inactive)
[25]
  GI50: 3.01 µM (inactive)
[26]
  GI50: 4.94 µM (inactive)
[27]
  GI50: 3.54 µM (inactive)
[28]
  GI50: 2.74 µM (inactive)
[29]
  GI50: 1.87 µM (inactive)
[30]
  GI50: 3.65 µM (inactive)
[31]
  GI50: 5.24 µM (inactive)
[32]
  GI50: 3.44 µM (inactive)
[33]
  GI50: 2.99 µM (inactive)
[34]
  GI50: 3.42 µM (inactive)
[35]
  GI50: 3.33 µM (inactive)
[36]
  GI50: 3.24 µM (inactive)
[37]
  GI50: 3.31 µM (inactive)
[38]
  GI50: 4.09 µM (inactive)
